Test results published in US10160705B2, “Class of HDAC inhibitors expands the renal progenitor cells population and improves the rate of recovery from acute kidney injury” (University of Pittsburgh—Of the Commonwealth System of …, priority 2011, dated 2018).
“Also recorded” adds a separate entry of the source. Read-outs that look alike come from different tables or passages of the source.

Columns and labels:
[1] = cited from earlier work
zebrafish embryos = test: Phenotypic screen for edema and survival in zebrafish larvae at 72 hpf; details: for larvae with edemic phenotype / pericardial edema by 72 hpf: 3 μM PTBA; for larvae with edemic phenotype / pericardial edema by 72 hpf / death by 72 hpf: 25 μM PBA, 200 nM TSA; for death by 72 hpf: n=90; for Dead / Edemic 1 (E1) / Edemic 2 (E2) / Edemic 3 (E3) / Wild-type (WT): number of larvae (of 36), 3 μM from 2 hpf, scored at 72 hpf
Summary of the method: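 Embryos (5/well in primary screen; 12–30 per group otherwise) exposed from 2 hpf in E3 medium with 0.5% DMSO, 10 μM in screen or stated concentrations, 28.5 °C for 70 h. At 72 hpf, edema scored by phenotype classification (dominant phenotype in ≥4/5 embryos in screen); survival vs 0 μM by two-tailed Fisher's exact test (p<0.05).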

human HDACs = test: Fluorescence histone deacetylation assay with HeLa cell nuclear extract; type: biochemical; details: for HDAC activity elicited by 10 μg HeLa extract, percent of the control value: 5 mM compound
Description: To evaluate this in vitro, the deacetylation of a fluorescent peptide substrate was measured in the presence of human HDACs.
In vitro HDAC activity assays were performed using a fluorescence HDAC assay kit (Active Motif) according to the manufacturer's instructions. For maintaining compound solubility at 5 mM, the final DMSO concentration in all assay wells was increased to 5%. Fluorescence was detected using an M5 Plate Reader ([…])

histone H4 = test: Histone H4 hyperacetylation Western blot in treated embryos; type: in vivo, zebrafish; details: 24 hpf embryos, 6 hours; 3 μM PTBA, 25 μM PBA, 200 nM TSA
Description: It was next determined whether the HDACi function of PTBA was quantifiable in vivo. 24 hpf embryos were treated with 3 μM PTBA, 25 μM PBA, or 200 nM TSA for 6 hours. Protein extracts were prepared and immunoblotted with an anti-hyperacetylated histone H4 antibody. […] Furthermore, increasing the compound concentration caused a corresponding increase in hyperacetylation (FIG. 21).
SDS-PAGE and Western blotting were performed as described previously with some modifications (Noel, E. S. et al. Organ-specific requirements for Hdac1 in liver and pancreas formation. Dev Biol 322, 237-250, (2008)). Proteins were separated on 18% SDS-PAGE gels. Membranes were incubated at 4° C. overnight with 1:1000 anti-hyperacetylated histone H4 antibody (06-946, Millipore) or 1:1000 anti-α-tubulin antibody (Sigma-Aldrich) in PBT containing 5% nonfat milk.

renal progenitor cells = test: In situ hybridization for lhx1a expression in 10-somite embryos (renal progenitor cell expansion); type: in vivo; details: for concentration producing an expansion of lhx1a expression consistent with 3 μM PTBA: concentration-response; for Lhx1a expansion caused by analog treatment, 800 nM: 800 nM from 2 hpf; for EC50: first pass EC50 from percent expansion (Excel trendline), average where several experiments; for Lhx1a expansion caused by analog treatment, 100 nM: key: effective (+); partially effective (+/−); ineffective (−); Analogs that killed all embryos at a given concentration before reaching 10 somites are listed as XX; for Lhx1a expansion caused by analog treatment, 200 nM: key: effective (+); partially effective (+/−); ineffective (−); Analogs that killed all embryos at a given concentration before reaching 10 somites are listed as XX; for Lhx1a expansion caused by analog treatment, 3 μM: key: effective (+); partially effective (+/−); ineffective (−); Analogs that killed all embryos at a given concentration before reaching 10 somites are listed as XX; for Lhx1a expansion caused by analog treatment, 400 nM: key: effective (+); partially effective (+/−); ineffective (−); Analogs that killed all embryos at a given concentration before reaching 10 somites are listed as XX
Summary of the method: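 Zebrafish embryos treated with compound, then colorimetric whole-mount in situ hybridization (65° C) for lhx1a mRNA at 10 somites. Embryos with expanded kidney field counted manually as percent of total. EC50 taken as 50% point of percent-expansion trendline; compounds also classed effective, partial or ineffective versus PTBA at matched concentration.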

HDAC = details: 5 mM; cited from earlier work
[2] = tested on: mesodermal markers myod1, fli1a, and ntla; test: In situ hybridization for the mesodermal markers myod1, fli1a and ntla in 10-somite embryos; type: in vivo, zebrafish
Description: PTBA was synthesized as described below. Hydroxyurea and aphidicolin were obtained from Sigma-Aldrich.
In situ hybridization and immunocytochemistry: In situ hybridization was performed as previously described with some modifications.142 Hybridization temperature was 65° C. Embryos were blocked in 2% blocking reagent (Roche) with 5% sheep serum in MAB (100 mM maleic acid and 150 mM NaCl [pH 7.5]). Whole-mount immunocytochemistry with 1:25 mouse anti-α6F antibody (Developmental Studies Hybridoma Bank) and 1:100 Cy3 secondary antibody (Jackson ImmunoResearch) was performed as described previously.108 Embryos were embedded in JB-4 for sectioning per the manufacturer's instructions (Polysciences), sectioned at 5 μm, and mounted with Cytoseal 60 (Richard-Allan Scientific).

CD1 mice = test: Folic acid-induced AKI in CD1 mice; type: in vivo, mouse; details: daily IP from 24 hrs after folic acid, 15 days
Description: FIG. 42 are photomicrographs showing the results of an AKI model using folic acid-induced injury. Folic acid is administered to CD1 mice (n=6/group) intraperitoneally (IP) at […] in 0.3M NaHCO3. Compound UPHD-00022 was injected daily IP at […] in 30% PEG300 vehicle starting 24 hrs after folic acid treatment. Kidney tissue was stained using Trichrome and Sirus Red stained after 15 days. Blue in trichrome and the red in sirus red indicates fibrotic (scar) tissue.

Acetylated Histone H3 K9 = test: Renal histone acetylation after single S/C injection in CD1 mice; type: in vivo, mouse; details: 3.4 mg/kg single SC injection, 24 hours
Description: PTBA analogs are used at a dose range determined from comparative dose efficacy with m4PTB in the secondary zebrafish screen. […] Preliminary studies compared the effect of Trichostatin A (an established, but toxic HDACi) at an effective dose in the zebrafish screen ([…]) with an equivalent dose of m4PTB (0.8 mM), and then ×2 and ×4 dose increments (molar concentration in vivo based on estimate uniform distribution relative to body mass of water). […] Studies may be performed on 3 mice/group.

[3] = tested on: proximal convoluted tubule cells; test: Renal cell proliferation post gentamycin-induced AKI in zebrafish larvae; type: in vivo; details: 4 μM added 2 days post injection of gentamicin, EdU at 5 days post injection
Description: FIG. 43A is a graph showing the results of an AKI model using gentamycin-induced injury. AKI is generated as per a recent publication, Cianciolo Cosenitino, C., et al. ((2010) Intravenous microinjections of zebrafish larvae to study acute kidney injury. JoVE August 4 (42), pii: 2079. doi: 10.3791/2079). Four micromolar m4PTB (UPHD-00025) was added to the zebrafish E3 media in 0.5% DMSO at 2 days post injection of gentamicin and the larvae are scored daily for four days (6 days post injection) as alive or dead, with the final data tallied on day 6 post injection FIG. 43B.
Proliferation of renal cells was examined post AKI for m4PTB in zebrafish larvae (FIG. 44). AKI is generated as above with gentamycin, essentially as described in Example 11. Four μM m4PTB was added 2 days post injection of gentamicin. Zebrafish larvae at 5 days post injection were treated for 1 hour with the thymidine analogue EdU (10 milimolar), which incorporates into dividing (proliferating cells) while the larvae are in the zebrafish E3 media. The larvae where then fixed and processed for histology to count the number of proliferating cells in the proximal convulted tubule (as marked by the antibody 3G8). The number of proliferating cells was divided by the total number of cells in the proximal convoluted tubule to generate the percent of proliferation also known as the proliferation index as shown in FIG. 44.

[4] = 3 μM from 2 hpf, 10-somite embryos
[5] = 100 nM from 2 hpf, 10-somite embryos
[6] = 200 nM from 2 hpf, 10-somite embryos
[7] = 1.5 μM from 2 hpf, 10-somite embryos
[8] = Danio rerio, 1.5 μM from 2 hpf, 10-somite embryos, read-out: lhx1a expansion, percent of treated embryos
[9] = Danio rerio, percent of embryos with expanded kidney field, 1.5 μM, read-out: Expansion of Cells (including repeats* and recounts**) 1.5 μM
[10] = Danio rerio, percent of embryos with expanded kidney field, 3 μM, read-out: Expansion of Cells (including repeats* and recounts**) 3 μM

| SMILES | larvae with edemic phenotype / pericardial edema by 72 hpf (zebrafish embryos) [%] | death by 72 hpf (zebrafish embryos) [%] | Dead (zebrafish embryos) | Edemic 1 (E1) (zebrafish embryos) | Edemic 2 (E2) (zebrafish embryos) | Edemic 3 (E3) (zebrafish embryos) | Wild-type (WT) (zebrafish embryos) | HDAC activity elicited by 10 μg HeLa extract, percent of the control value (human HDACs) [%] | histone H4 hyperacetylation (histone H4) | Lhx1a expansion caused by analog treatment, 3 μM (renal progenitor cells; [4]) | concentration producing an expansion of lhx1a expression consistent with 3 μM PTBA (renal progenitor cells; 10-somite embryos) [µM] | Lhx1a expansion caused by analog treatment, 800 nM (renal progenitor cells; 10-somite embryos) | Lhx1a expansion caused by analog treatment, 1.5 μM (renal progenitor cells; [7]) | responders at 1.5 µM (renal progenitor cells; [8]) [%] | responders at 1.5 µM (renal progenitor cells; [9]) [%] | responders at 3 µM (renal progenitor cells; [10]) [%] | EC50 (renal progenitor cells; Danio rerio) [nM] | also measured |
| --- | --- | --- | --- | --- | --- | --- | --- | --- | --- | --- | --- | --- | --- | --- | --- | --- | --- | --- |
| O=C(O)CCCc1ccccc1 [Buphenyl] |  |  |  |  |  |  |  |  |  |  |  |  |  |  |  |  |  | half-life (t1/2) ([1]; following administration): ~1 h; bioavailability ([1]; taken orally): about 80% |
| O=C(O)CCCc1ccccc1 [PBA, 4-phenylbutanoic acid, reference compound] | 23 | 8 | 0 | 0 | 0 | 0 | 36 | 30 | Histone H4 hyperacetylation was observed | − | 25 |  |  |  |  |  |  | HDAC activity, percent of the control value (HDAC): 19% |
| O=C(O)CCCS(=O)(=O)c1ccccc1 [PSOBA, 4-(phenylsulfonyl)butanoic acid, reference compound] |  |  | 0 | 0 | 0 | 0 | 36 | 70 |  | − |  |  |  |  |  |  |  | lhx1a expansion, percent of treated embryos (renal progenitor cells; [4]): no ability to expand renal progenitor cells |
| CC(/C=C/C(=O)NO)=C\[C@@H](C)C(=O)c1ccc(N(C)C)cc1 [TSA, trichostatin A, reference compound] | 100 | 61 | 36 | 0 | 0 | 0 | 0 |  | Histone H4 hyperacetylation was observed |  | 0.2 |  |  |  |  |  |  | treated 72 hpf larvae killed (zebrafish embryos; 300 nM): greater than 90%; HDAC activity (human HDACs; 1 μM TSA, all input levels of nuclear extract): completely blocked activity; Lhx1a expansion caused by analog treatment, 100 nM (renal progenitor cells; [5]): +; lhx1a expansion, percent of treated embryos (renal progenitor cells; [5]): 97%; Lhx1a expansion caused by analog treatment, 200 nM (renal progenitor cells; [6]): +; lhx1a expansion, percent of treated embryos (renal progenitor cells; [6]): 100%; lethality before reaching 10 somites (renal progenitor cells; 400 nM): died before reaching 10 somites; treated embryos killed (renal progenitor cells; 800 nM): lethal; lethality before the 10-somite stage (renal progenitor cells; 1.5 μM): lethal; lethality before the 10-somite stage (renal progenitor cells; 3 μM): killed all treated embryos; normal ntla expression disrupted, percent of treated embryos ([2]; 200 nM): 86%; myod1 expression decreased, percent of treated embryos ([2]; 3 μM PTBA (slightly decreased), 25 μM PBA, 200 nM TSA): 100%; fli1a expression decreased, percent of treated embryos ([2]; 25 μM PBA, 200 nM TSA): 95% |
| COC(=O)CCCSc1ccc(OC)cc1 [UPHD-00022, methyl 4-[(4-methoxy-phenyl)sulfanyl]butanoate] |  |  | 1 | 2 | 24 | 9 | 0 |  |  | + |  | + | + | 91 | 83 | 85 | 1400 | renal fibrosis (Trichrome and Sirus Red) (CD1 mice): reduction in fibrosis; Lhx1a expansion caused by analog treatment, 400 nM (renal progenitor cells; 400 nM from 2 hpf, 10-somite embryos): +/−; responders at 0.8 µM (renal progenitor cells; Danio rerio, percent of embryos with expanded kidney field, 800 nM, read-out: Expansion of Cells (including repeats* and recounts**) 800 nM): 39%; responders at 0.4 µM (renal progenitor cells; Danio rerio, read-out: lhx1a expansion, percent of treated embryos, 400 nM from 2 hpf, 10-somite embryos): 29%; responders at 0.8 µM (renal progenitor cells; Danio rerio, read-out: lhx1a expansion, percent of treated embryos, 800 nM from 2 hpf, 10-somite embryos): 57% |
| COC(=O)CCCSc1ccccc1 [UPHD-00025, methyl 4-(phenylsulfanyl)butanoate (m4PTB)] |  |  | 8 | 0 | 2 | 26 | 0 |  |  | + |  | +/− | + | 89 | 89 | 97 | 432 | renal Ac-H3 K9 induction (Acetylated Histone H3 K9): maximal expression of Ac—H3 K9; also recorded: maximal induction of H3K9A; renal cell proliferation (proliferation index) [3]: significantly increased; responders at 3 µM (renal progenitor cells; Danio rerio, 3 μM from 2 hpf, 10-somite embryos, read-out: lhx1a expansion, percent of treated embryos): 100%; responders at 0.2 µM (renal progenitor cells; Danio rerio, percent of embryos with expanded kidney field, 200 nM, read-out: Expansion of Cells (including repeats* and recounts**) 200 nM): 33% |
